Laboratory results reported in patent US20210171948A1, “COMPOSITIONS AND METHODS FOR TARGETING GLYPICAN-2 IN THE TREATMENT OF CANCER” (Shepherd Therapeutics, Inc., priority 2019, published 2021).
pIC50: −log10 of the molar value.

How the values were obtained:
Assay type in all cases: cell-based
[1] = test system: SKNAS cells; assay: Etoposide IC50 in siRNA-transfected cells, Cell Titer Glo 2.0 viability (Example 9)
Method: (§1) GPC2 mRNA expression was reduced and changes in cell viability were assessed in multiple neuroblastoma cell lines. Cells were transfected with either a control siRNA or with GPC2 siRNA sequences 3, 5 or 7 from Table 7 using the RNAiMAX Lipofectamine kit (Invitrogen, Carlsbad, Calif.) as previously described in 96 wells for viability assays. Etoposide was added at increasing concentrations (0-15 uM) to transfected cells at 24 hours post transfection. Following a 72 hour incubation period, viability measurement were made using Cell Titer Glo 2.0.

[2] = test system: CHLA-136 cells; assay: as above
Method: as §1

[3] = test system: KELLY cells; assay: as above
Method: as §1

[4] = test system: CHLA-172 cells; assay: as above
Method: as §1

[5] = test system: SKNAS cells; assay: Doxorubicin IC50 in siRNA-transfected cells, Cell Titer Glo viability (Example 8)
Method: as §1, with “with GPC-2” for “with GPC2”, “assays. Doxorubicin” for “assays. Etoposide”, “concentrations (0-5” for “concentrations (0-15”, “viability measurements” for “viability measurement”, “Titer Glo.” for “Titer Glo 2.0.”

[6] = test system: CHLA-136 cells; assay: as above; conditions: CHLA-136 cells transfected with the labelled siRNA; doxorubicin added 24 hours post transfection, 72 hour incubation
Method: as §1, with “with GPC-2” for “with GPC2”, “assays. Doxorubicin” for “assays. Etoposide”, “concentrations (0-5” for “concentrations (0-15”, “viability measurements” for “viability measurement”, “Titer Glo.” for “Titer Glo 2.0.”

[7] = test system: KELLY cells; assay: as above
Method: as §1, with “with GPC-2” for “with GPC2”, “assays. Doxorubicin” for “assays. Etoposide”, “concentrations (0-5” for “concentrations (0-15”, “viability measurements” for “viability measurement”, “Titer Glo.” for “Titer Glo 2.0.”

[8] = test system: CHLA-172 cells; assay: as above; conditions: CHLA-172 cells transfected with the labelled siRNA; doxorubicin added 24 hours post transfection, 72 hour incubation
Method: as §1, with “with GPC-2” for “with GPC2”, “assays. Doxorubicin” for “assays. Etoposide”, “concentrations (0-5” for “concentrations (0-15”, “viability measurements” for “viability measurement”, “Titer Glo.” for “Titer Glo 2.0.”

[9] = test system: SKNAS cells; assay: Cell viability after siRNA transfection, Cell Titer Glo 2.0 (Example 3)
Method: (§2) GPC2 mRNA knockdown and changes in cell viability were assessed in multiple cancer cell lines. Cells were transfected with either a scrambled control siRNA or with GPC2 siRNA sequence 3 or sequence 5 from Table 7 using the RNAiMAX Lipofectamine kit (Invitrogen, Carlsbad, Calif.) as previously described in Example 2, either in 96 well format (for viability assays) or 6 well format (for knockdown assessment). Following a 96 hour incubation period, cells were washed and the viability measurement was assessed using Cell Titer Glo 2.0. Total RNA was isolated from the 6 well plate samples to determine knockdown efficiency.

[10] = test system: IMR32 cells; assay: as above
Method: as §2

[11] = test system: TC71 cells; assay: as above
Method: as §2

[12] = test system: RH30 cells; assay: as above
Method: as §2

[13] = test system: TC32 cells; assay: as above
Method: as §2

[14] = test system: CHP212 cells; assay: as above
Method: as §2

[15] = test system: COV362 cells; assay: as above; conditions: COV362 (Ovarian Carcinoma); 96 hour incubation
Method: as §2

[16] = test system: SNU16 cells; assay: as above
Method: as §2

[17] = test system: MCF7 cells; assay: as above
Method: as §2

[18] = test system: RH41 cells; assay: as above
Method: as §2

[19] = test system: TOV112D cells; assay: as above
Method: as §2

[20] = test system: GIST-T1 cells; assay: as above
Method: as §2

[21] = test system: TC71 cells; assay: Cisplatin IC50 in siRNA-transfected cells, Cell Titer Glo 2.0 viability (Example 5)
Method: (§3) GPC2 mRNA was reduced using the indicated siRNAs and changes in cell viability were assessed in multiple cancer cell lines, in combination with Cisplatin treatment. Cells were transfected with either a scrambled control siRNA or with GPC2 siRNA sequences 3 or 5 from Table 7 using the RNAiMAX Lipofectamine kit (Invitrogen, Carlsbad, Calif.), as previously described, in either in 96 well (for viability assays) or 6 well format (for total RNA). Cisplatin was added at increasing concentrations (0 to 30 uM) to transfected cells at 24 hours post transfection. Following a 72 hour incubation period, cell viability was measured using Cell Titer Glo 2.0. Total RNA samples were also isolated to measure knockdown efficiency.

[22] = test system: RH30 cells; assay: as above
Method: as §3

[23] = test system: TC32 cells; assay: as above
Method: as §3

[24] = test system: CHP212 cells; assay: as above
Method: as §3

[25] = test system: SNU16 cells; assay: as above
Method: as §3

[26] = test system: GIST-T1 cells; assay: as above; conditions: GIST-T1 cells transfected with the labelled siRNA; cisplatin added 24 hours post transfection, 72 hour incubation
Method: as §3

Substance: GPC2 siRNA 3: siRNA duplex: sense CCUGCUUGGACCUCGAUAA[dT][dT] (SEQ ID NO: 207), anti-sense UUAUCGAGGUCCAAGCAGG[dT][dT] (SEQ ID NO: 208) (sense CCUGCUUGGACCUCGAUAANN; antisense UUAUCGAGGUCCAAGCAGGNN; 3' dTdT overhangs, chemistry not fully specified; listed as Homo sapiens)
- Data Summary: effect of knockdown on sensitivity to etoposide ([1]; SKNAS): increases sensitivity to etoposide
- pIC50 ([1]; SKNAS cells transfected with the labelled siRNA, etoposide added 24 hours post transfection, 72 hour incubation): 7.40
- Data Summary: effect of knockdown on sensitivity to etoposide ([2]; CHLA-136): increases sensitivity to etoposide
- pIC50 ([2]; CHLA-136 cells transfected with the labelled siRNA, etoposide added 24 hours post transfection, 72 hour incubation): 6.77
- Data Summary: effect of knockdown on sensitivity to etoposide ([3]; KELLY): increases sensitivity to etoposide
- pIC50 ([3]; KELLY cells transfected with the labelled siRNA, etoposide added 24 hours post transfection, 72 hour incubation): 7.15
- Data Summary: effect of knockdown on sensitivity to etoposide ([4]; CHLA-172): increases sensitivity to etoposide
- pIC50 ([4]; CHLA-172 cells transfected with the labelled siRNA, etoposide added 24 hours post transfection, 72 hour incubation): 5.70
- Data Summary: effect of knockdown on sensitivity to doxorubicin ([5]; SKNAS): increases sensitivity to
- pIC50 ([5]; SKNAS cells transfected with the labelled siRNA, doxorubicin added 24 hours post transfection, 72 hour incubation): 7.40
- pIC50 [6]: 6.77
- Data Summary: effect of knockdown on sensitivity to doxorubicin ([7]; KELLY): not increase sensitivity
- pIC50 ([7]; KELLY cells transfected with the labelled siRNA, doxorubicin added 24 hours post transfection, 72 hour incubation): 7.15
- pIC50 [8]: 5.70
- % Viability [9]: 84.58%
- % Viability [10]: 89.05%
- % Viability [11]: 102.39%
- % Viability [12]: 79.02%
- % Viability [13]: 78.24%
- % Viability [14]: 70.18%
- % Viability [15]: 102.76%
- % Viability [16]: 92.74%
- % Viability [17]: 79.67%
- % Viability [18]: 131.49%
- % Viability [19]: 152.77%
- % Viability [20]: 70.87%
- Data Summary: effect of knockdown on sensitivity to cisplatin ([21]; TC71): does not increase
- pIC50 ([21]; TC71 cells transfected with the labelled siRNA, cisplatin added 24 hours post transfection, 72 hour incubation): 5.89
- Data Summary: effect of knockdown on sensitivity to cisplatin ([22]; RH30): does not increase
- pIC50 ([22]; RH30 cells transfected with the labelled siRNA, cisplatin added 24 hours post transfection, 72 hour incubation): 5.68
- Data Summary: effect of knockdown on sensitivity to cisplatin ([23]; TC32): does not increase
- pIC50 ([23]; TC32 cells transfected with the labelled siRNA, cisplatin added 24 hours post transfection, 72 hour incubation): 5.64
- Data Summary: effect of knockdown on sensitivity to cisplatin ([24]; CHP212): increases sensitivity to
- pIC50 ([24]; CHP212 cells transfected with the labelled siRNA, cisplatin added 24 hours post transfection, 72 hour incubation): 5.13
- Data Summary: effect of knockdown on sensitivity to cisplatin ([25]; SNU16): does not increase
- pIC50 ([25]; SNU16 cells transfected with the labelled siRNA, cisplatin added 24 hours post transfection, 72 hour incubation): 4.80
- pIC50 [26]: 4.89
